Assay results taken from article PMC11259170, “Small-molecule probe for IBD risk variant GPR65 I231L alters cytokine signaling networks through positive allosteric modulation” (Science Advances, 2024).
pEC50: −log10 of the molar value. Like-named read-outs stand apart in the source and are kept apart here.

What was measured:
[1] = tested on: GFP-expressing HeLa cells; experiment: cAMP detection in HeLa expression cell line, GFP control; format: cell-based, human; settings: Homo sapiens, HeLa, NA = no activity; for Emax: relative to 100uM forskolin (100%) and DMSO (0%), read-out: GFP Max Activity %
Protocol: (§1) HeLa stable expression cell lines were produced by lentiviral transduction. Briefly, lentiviral plasmids for each GPCR with a C-terminal V5 Tag ([…]) were made in a pLX317 backbone using competent Escherichia coli (New England Biolabs, C3050H). Lenti-X 293 T (Takara, 632810) cells were transfected with the lentiviral plasmids to produce virus. Low-passage HeLa cells (American Type Culture Collection, CCL-2) were then transduced with lentivirus. After 48 hours, HeLa cells were cultured under selection with puromycin (3 μg/ml) and allowed to recover and expand before storing stocks in liquid nitrogen.
(§2) cAMP was measured in cells using the Lance Ultra cAMP Kit. HeLa cells were cultured under puromycin (3 μg/ml) selection. One day before the experiment, cells were seeded in T75 flasks and allowed to adhere overnight. On the day of the experiment, cells were washed twice with Dulbecco’s PBS and lifted using prewarmed 1× versene solution (Gibco, 15040066). Cells were counted in HBSS (Gibco, 14025092) and then resuspended in stimulation buffer prepared according to the manufacturer’s instructions and adjusted to pH 7.2 using 1 M sodium hydroxide. Cells were added to the plate at a density of 1500 cells per well in white opaque 384-well assay ready microplates containing 100 nl of 10 mM compound in DMSO. Cells were stimulated for 30 min at RT, then lysed and incubated with detection reagents for 1 hour in the dark at RT. Plates were read on BMG Labtech PHERAstar FSX (excitation, 337 nm; emission, 620 and 665 nm). Data analysis was performed using GraphPad Prism.

[2] = molecular target: T1, hGPR65 (Homo sapiens, UniProt Q8IYL9); experiment: cAMP detection in HeLa expression cell line, hGPR65; format: cell-based; settings: NA = no activity; for Emax: HeLa, relative to 100uM forskolin (100%) and DMSO (0%), read-out: hGPR Max Activity %
T1 construct: expressed in transfected cells; host or cells: HeLa (ATCC CCL-2), lentiviral transduction, pLX317
Protocol: as §1, §2

[3] = molecular target: T2, mGPR65 (Mus musculus, UniProt Q61038); experiment: cAMP detection in HeLa expression cell line, mGPR65; format: cell-based; settings: NA = no activity; for pEC50: read-out: mGPR EC50; for Emax: HeLa, relative to 100uM forskolin (100%) and DMSO (0%), read-out: mGPR Max Activity %; for EC50: mGPR EC50 (uM)
T2 construct: expressed in transfected cells; host or cells: HeLa (ATCC CCL-2), lentiviral transduction, pLX317
Protocol: as §1, §2

[4] = 1st hGPR column pair, read-out: hGPR EC50
[5] = 2nd hGPR column pair, read-out: hGPR EC50

T1 sequence (Q8IYL9 whole entry): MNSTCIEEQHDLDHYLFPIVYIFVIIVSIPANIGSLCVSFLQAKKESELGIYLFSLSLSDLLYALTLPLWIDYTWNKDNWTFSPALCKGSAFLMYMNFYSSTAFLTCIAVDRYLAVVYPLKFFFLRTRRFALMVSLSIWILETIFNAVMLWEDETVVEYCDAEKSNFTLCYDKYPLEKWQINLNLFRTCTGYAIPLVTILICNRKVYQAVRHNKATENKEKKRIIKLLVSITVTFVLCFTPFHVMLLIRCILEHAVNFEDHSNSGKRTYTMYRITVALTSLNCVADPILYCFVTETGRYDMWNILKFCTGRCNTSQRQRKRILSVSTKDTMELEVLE
T2 sequence (Q61038 whole entry): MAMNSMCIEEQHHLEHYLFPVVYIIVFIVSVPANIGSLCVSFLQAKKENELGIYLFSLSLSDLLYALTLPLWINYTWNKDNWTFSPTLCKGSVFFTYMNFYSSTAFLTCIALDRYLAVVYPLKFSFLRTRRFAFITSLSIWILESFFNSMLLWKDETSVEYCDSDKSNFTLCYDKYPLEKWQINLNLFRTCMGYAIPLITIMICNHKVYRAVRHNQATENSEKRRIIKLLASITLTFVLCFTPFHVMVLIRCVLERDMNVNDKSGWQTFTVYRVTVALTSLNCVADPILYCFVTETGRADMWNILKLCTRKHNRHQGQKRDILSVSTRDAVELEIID

| SMILES | pEC50 ([1]; 2nd GFP column pair) | Emax ([1]; 2nd GFP column pair) [%] | pEC50 [2, 4] | pEC50 [2, 5] | Emax ([2]; 1st hGPR column pair) [%] | Emax ([2]; 2nd hGPR column pair) [%] | pEC50 ([3]; 1st mGPR column pair) | pEC50 ([3]; 2nd mGPR column pair) | Emax ([3]; 2nd mGPR column pair) [%] | Emax [3] [%] | pEC50 ([1]; 1st GFP column pair) | Emax ([1]; 1st GFP column pair) [%] | pEC50 ([2]; hGPR EC50) | EC50 ([3]; 2nd mGPR column pair) [µM] | EC50 [3] [µM] |
| --- | --- | --- | --- | --- | --- | --- | --- | --- | --- | --- | --- | --- | --- | --- | --- |
| CCCc1cc(-c2cc(O)n3ncc(C(=O)Nc4ccccc4)c3n2)no1 [BRD0124] | 4.61 | 2.25 | 5.95 | 5.76 | 62.1 | 71.8 | 6.61 | 6.82 | 56.2 | 63 |  |  |  |  |  |
| COCc1ccc(-c2cc(O)n3ncc(C(=O)NC4CCOCC4)c3n2)cc1 [BRD0202] |  |  |  |  |  |  |  |  |  |  | 4.81 | 6.11 |  |  |  |
| Cc1n[nH]c(C)c1CCc1cc(O)n2ncc(C(=O)Nc3ccc(Cl)cc3)c2n1 [BRD1303] |  |  |  |  |  |  | 4.80 |  |  | 10.7 | 4.41 | 5.8 |  |  |  |
| Cc1ccc(NC(=O)c2cnn3c(O)cc(-c4cccc(C)c4)nc23)cc1 [BRD1420] |  |  | 5.43 |  | 22.9 |  | 6.33 |  |  | 2.06 | 6.50 | 2.36 |  |  |  |
| COCc1ccc(-c2cc(O)n3ncc(C(=O)Nc4ccccc4C)c3n2)cc1 [BRD2974] |  |  |  |  |  |  | 4.58 |  |  | 8.27 | 5.44 | 19.4 |  |  |  |
| O=C(O)c1cnn2c(O)cc(-c3ccccc3)nc12 [BRD3374] |  |  |  |  |  |  |  |  |  |  | 5.42 | 4.66 |  |  |  |
| Cc1ccc(NC(=O)c2cnn3c(O)cc(-c4ccc(N5CCCC5)cc4)nc23)cc1 [BRD4336] |  |  | 5.05 |  | 14.5 |  |  |  |  |  | 4.86 | 9.65 |  |  |  |
| Cc1ccc(NC(=O)c2cnn3c(O)cc(-c4ccc(N5CCOCC5)cc4)nc23)cc1 [BRD4390] | 4.93 | 2.2 | 6.15 | 6.58 | 73.5 | 76.8 | 6.39 | 5.97 | 26.8 | 26.6 |  |  |  |  |  |
| CC(C)OCc1ccc(-c2cc(O)n3ncc(C(=O)Nc4ccccc4)c3n2)cc1 [BRD5060] | 4.11 | 2.12 | 5.43 | 4.97 | 94.5 | 109 | 5.68 | 5.79 | 48.6 | 64.4 | 4.33 | 5.52 |  |  |  |
| Cc1ccc(NC(=O)c2cnn3c(O)cc(-c4ccc(N5CCOCC5)c(Cl)c4)nc23)cc1 [BRD5062] | 4.94 | 1.01 | 5.97 | 6.07 | 74.5 | 71.6 | 6.34 | 6.55 | 55.1 | 50.8 | 4.61 | 3.17 |  |  |  |
| CCOCc1ccc(-c2cc(O)n3ncc(C(=O)Nc4ccccc4)c3n2)cc1 [BRD5063] | 6.72 | 1.85 | 5.39 | 5.23 | 76.1 | 66.6 | 5.26 | 5.56 | 38 | 52.1 |  |  |  |  |  |
| COc1cc(-c2cc(O)n3ncc(C(=O)Nc4ccc(C)cc4)c3n2)ccc1F [BRD5066] | 5.22 | 1.99 | 5.83 | 5.73 | 67 | 70.4 | 5.94 | 6.11 | 29.4 | 31.3 |  |  |  |  |  |
| Cc1ccc(NC(=O)c2cnn3c(O)cc(-c4cnc(N5CCN(C)CC5)c(Cl)c4)nc23)cc1 [BRD5069] |  |  |  |  |  | 1.75 |  |  | 42.5 | 63.3 | 5.80 | 2.17 | 5.21 | 5.03 | 0.65 |
| Cc1ccc(NC(=O)c2cnn3c(O)cc(-c4ccc(N5CCN(C)CC5)nc4)nc23)cc1 [BRD5070] | 6.38 | 2.13 | 5.88 | 7.16 | 13.4 | 4.57 | 5.87 | 5.67 | 34.4 | 38.5 | 5.50 | 2.48 |  |  |  |
